Data: ChEMBL document CHEMBL6153083, “Synthesis, Structural Modification, and Antismall Cell Lung Cancer Activity of 3-Arylisoquinolines with Dual Inhibitory Activity on Topoisomerase I and II” (J Med Chem, 2025)
pIC50: −log10 of the molar value.

Experiments:
[1] = Antiproliferative activity against human NCI-H196 cells incubated for 72 hrs; type: functional, cell-based; settings: NCI-H196, 72 h
NCI-H446 = experiment: Antiproliferative activity against human NCI-H446 cells incubated for 72 hrs; type: functional, cell-based; settings: NCI-H446, 72 h
NCI-H1048 = experiment: Antiproliferative activity against human NCI-H1048 cells incubated for 72 hrs; type: functional, cell-based; settings: NCI-H1048, 72 h
NCI-H82 = experiment: Antiproliferative activity against human NCI-H82 cells incubated for 72 hrs; type: functional, cell-based; settings: NCI-H82, 72 h
SHP77 = experiment: Antiproliferative activity against human SHP77 cells incubated for 72 hrs; type: functional, cell-based; settings: SHP77, 72 h
NCI-H209 = experiment: Antiproliferative activity against human NCI-H209 cells incubated for 72 hrs; type: functional, cell-based; settings: NCI-H209, 72 h
NCI-H146 = experiment: Antiproliferative activity against human NCI-H146 cells incubated for 72 hrs; type: functional, cell-based; settings: NCI-H146, 72 h
[2] = Antiproliferative activity against human L02 cells incubated for 72 hrs; type: toxicity, cell-based
[3] = Antiproliferative activity against human BEAS-2B cells incubated for 72 hrs; type: toxicity, cell-based

SMILES	pIC50 [1]	pIC50 (NCI-H446)	pIC50 (NCI-H1048)	pIC50 (NCI-H82)	pIC50 (SHP77)	pIC50 (NCI-H209)	pIC50 (NCI-H146)	IC50 at 72 h [2]	IC50 at 72 h [3]
c1c(CN2CC3(CCC3)C2)c(-c2cc3ccc4c(c3cn2)OCO4)cc2c1OCO2	4.51	4.61	4.52	4.24	4.42	4.30	< 4.00	> 100 µM	30.4 µM
CC1(CO)CCN(Cc2cc3c(cc2-c2cc4ccc5c(c4cn2)OCO5)OCO3)CC1	4.39	4.18	4.53	4.24	4.65	4.08	4.15	37.9 µM	21.2 µM
OCCCC1CCN(Cc2cc3c(cc2-c2cc4ccc5c(c4cn2)OCO5)OCO3)CC1	4.55	4.71	4.61	4.39	4.58	4.16	4.68	52.2 µM	24.8 µM
FC1(F)C2CCN(Cc3cc4c(cc3-c3cc5ccc6c(c5cn3)OCO6)OCO4)CC21 (stereo not drawn)	4.56	4.96	4.67	4.35	4.80	4.51	4.89	77.6 µM	10.3 µM
CC1(O)CCN(Cc2cc3c(cc2-c2cc4ccc5c(c4cn2)OCO5)OCO3)C1 (stereo not drawn)	4.33	4.41	4.45	< 4.00	4.49	4.14	4.70	> 100 µM	39.7 µM
c1c(CN2CCCCCCC2)c(-c2cc3ccc4c(c3cn2)OCO4)cc2c1OCO2	4.96	5.83	5.29	4.99	5.29	4.57	4.82	23 µM	24.3 µM
COC(=O)C1CCN(Cc2cc3c(cc2-c2cc4ccc5c(c4cn2)OCO5)OCO3)CC1	< 4.00	4.18	4.22	< 4.00	< 4.00	< 4.00	< 4.00		77.5 µM
FC1CN(Cc2cc3c(cc2-c2cc4ccc5c(c4cn2)OCO5)OCO3)C1	< 4.00	4.30	4.13	< 4.00	4.35	< 4.00		59 µM	75.6 µM
CC1CCN1Cc1cc2c(cc1-c1cc3ccc4c(c3cn1)OCO4)OCO2 (stereo not drawn)	4.33	4.31	4.37	4.25	4.37	4.31		33.8 µM	27.7 µM
c1c(CN2CCCC2)c(-c2cc3ccc4c(c3cn2)OCO4)cc2c1OCO2	4.46	4.40	4.60	4.22	4.54	4.09	4.37	33.6 µM	29 µM
ClC1CCN(Cc2cc3c(cc2-c2cc4ccc5c(c4cn2)OCO5)OCO3)CC1	4.20	4.42	< 4.00	< 4.00	< 4.00	< 4.00	< 4.00	> 100 µM	> 100 µM
CC[C@@]1(O)C(=O)OCc2c1cc1n(c2=O)Cc2cc3c(CN(C)C)c(O)ccc3nc2-1 [TOPOTECAN]	4.79	4.66	< 4.00	6.39	6.72	< 4.00	> 5.81	0.26 µM	< 0.07 µM
c1c(CN2CC3CCC(C2)O3)c(-c2cc3ccc4c(c3cn2)OCO4)cc2c1OCO2	4.50	4.69			4.51	4.33	< 4.00	> 100 µM	57.3 µM
c1c(CN2CCCCC2)c(-c2cc3ccc4c(c3cn2)OCO4)cc2c1OCO2	4.47	4.70	4.85	4.57	4.52	4.25	< 4.00	25.2 µM	21.2 µM
CN1CCCN(Cc2cc3c(cc2-c2cc4ccc5c(c4cn2)OCO5)OCO3)CC1	4.70	4.98	4.49	5.19	4.65	< 4.30		> 100 µM	> 100 µM
CC1CCCCN1Cc1cc2c(cc1-c1cc3ccc4c(c3cn1)OCO4)OCO2 (stereo not drawn)	4.43	4.84	4.78	4.41	4.39	4.30	4.41	42.4 µM	19.4 µM
